Values of other authors as cited in patent publication US4758437A, “Composition for long acting nicardipine preparation and process of producing the composition” (Yamanouchi Pharmaceutical Co., Ltd., priority 1987, dated 1988).

solubility in the first fluid of Japanese Pharmacopeia IX (about pH 1.2, nicardipine or its salt): good solubility | solubility in the second fluid of Japanese Pharmacopeia IX (about pH 7.5): sparingly soluble | solubility in intestinal juice (intestinal juice): practically insoluble
SMILES: COC(=O)C1=C(C)NC(C)=C(C(=O)OCCN(C)Cc2ccccc2)C1c1cccc([N+](=O)[O-])c1 (stereo not drawn) [nicardipine, 2,6-dimethyl-4-(3'-nitrophenyl)-1,4-dihydropyridine-3,5-dicarboxylic acid-3-methyl ester-5-β-(N-benzyl-N-methylamino)-ethyl ester]
